Data set [1] relates to seedling blight of rice plant (pathogen Fusarium sp. and Rhizoctonia sp.). In words: Exterminating test on seedling blight of rice plant (Experimental Example 1). The note with it: soil, 408 h, 0.25g/box a.i., 5% dust mixed with soil; read-out: Percentage of healthy seedlings. In kind it is in vivo. Put shortly: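 Pathogen-contaminated nursery soil (Fusarium sp., Rhizoctonia sp.) mixed with 5% compound dust at 5 g per box; Nihonbare rice sown, grown 7 days at 17° C in lighting chamber, then moved to field. Assessed 10 days later as percentage of healthy seedlings; commercial 4% hydroxyisoxazol dust run as control.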

Data set [2] deals with Cladosporium cucumerinum (cucumber scab). In words: Exterminating test on cucumber scab (Experimental Example 2). In kind it is in vivo. Also on record: scale not given here. The note with it: 500 ppm, 5 days after inoculation. Put shortly: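 Potted cucumber seedlings (cv. Sagamihanjiro, 3–4 leaf stage) were sprayed with an aqueous suspension of 80% wettable powder, then spray-inoculated with Cladosporium cucumerinum spores 24 h later. Plants were held 24 h in a moist chamber at 20° C, then in a greenhouse at 20° C. Infected Index was scored 5 days after inoculation from leaf counts by attack severity.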

The subject of data set [3] is cucumber seedlings (variety: Sagamihanjiro). In words: Phytotoxicity on cucumber seedlings (Experimental Example 2). The class given is in vivo. The note with it: 500 ppm. A digest of the protocol:
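Cucumber seedlings at the 3–4 leaf stage sprayed with water-diluted 80% wettable powder, then spray-inoculated with Cladosporium cucumerinum spores 24 h later. Plants held 24 h in a moist chamber at 20° C, then kept in a greenhouse at 20° C.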

The test system of data set [4] is Rhizoctonia solani (damping-off of cucumber). In words: Exterminating test on damping-off of cucumber (Experimental Example 3). The class given is in vivo. The note with it: Rhizoctonia solani, soil, 240 h, 1,000 ppm, soil drench 50 ml per pot, 10 days; read-out: Percentage of healthy seedlings. A digest of the protocol: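 Percentage of healthy seedlings was scored 10 days post inoculation, with PCNB 50% wettable powder run alongside as reference. Each pot held 10 Azumamidori cucumber seeds in field soil carrying 5 g Rhizoctonia solani. Soil drench: 50 ml water suspension of 80% wettable powder; greenhouse.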

Data set [5] concerns botrytis cinerea (gray mold). Put plainly: Exterminating test on gray mold of tomato (Experimental Example 5). Also on record: scale not given here. In kind it is in vivo. To be noted: 1,000 ppm, 48 hours after inoculation, kidney bean leaves. Put shortly:
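Kidney bean seedlings (5-6 leaf stage) sprayed with water-diluted 80% wettable powder; leaves detached 24 h later and inoculated with B. cinerea agar disks under moist conditions. Lesion diameters measured 48 h post-inoculation to calculate an Effect Index.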

The test system of data set [6] is seedlings of kidney beans (variety: Orient). Put plainly: Phytotoxicity on kidney beans (Experimental Example 5). The class given is in vivo. The note with it: 1,000 ppm.
The next data set concerns Cladosporium cucumerinum. In words: Exterminating test for seed treatment (Experimental Example 7). In kind it is in vivo. The source says:
Exterminating test for seed treatment. Cucumber seeds (variety: Oyashima) were dipped in the spores suspension of Cladosporium cucumerinum and dried. After 1 day, the seeds were dressed with 80% wettable powder of the present invention. On the other hand, other seeds were dipped in the solution of 80% wettable powder of the present invention. Five (5) seeds treated by either dressing or dipping were placed on each potato dextrose agar plate. After 10 days after the treatment, degrees attacked by the pathogen were observed and the results were shown with an "Effective Index". An "Effective Index" was calculated as follows: [formula]

Data set [7] deals with Cucumber seeds (variety: Oyashima). Put plainly: Phytotoxicity on cucumber seeds (Experimental Example 7). In kind it is in vivo.
The subject of a further data set is Aspergillus niger. In words: Minimum inhibitory concentration, dilution methods (Example 14). The class given is cell-based. The source says: (§1) Bacteriocidal activity and fungicidal activity of the active compounds of the present invention were examined by potato-dextrose agar dilution method, [2] waxman's liquid medium dilution method or [3] glucose bouillon medium dilution method. The results are shown in Table 4 below as the minimum inhibitory concentration (the minimum concentration of active compound found to produce 100% control of the test bacteria and fungi).

A further data set concerns Bacillus subtilis. The data set is described as above. In kind it is cell-based. To be noted: Bacillus subtilis.
Source text: as §1

The next data set relates to Cladosporium harbarum. The data set is described as above. In kind it is cell-based. The note with it: for minimum inhibitory concentration: (1) potato-dextrose agar dilution method.
Source text: as §1
A general note: In agar dilution, organisms are placed on agar that contains the substance at set levels.

Another data set has as its system Escherichia coli. The description is as above. In kind it is cell-based. To be noted: Escherichia coli.
Source text: as §1

The next data set deals with Penicillium Citrinum. Described as above. In kind it is cell-based. The note with it: for MIC: Penicillium citrinum.
Source text: as §1

The subject of another data set is Staphylococcus aureus. Described as above. The class given is cell-based. The note with it: for minimum inhibitory concentration: (1) potato-dextrose agar dilution method; for MIC: Staphylococcus aureus.
Source text: as §1

Where [8] appears, read: (2) waxman's liquid medium dilution method.
Where [9] appears, read: (1) potato-dextrose agar dilution method.
The mark [10] stands for this setting: (3) glucose bouillon medium dilution method.

The structures appear in SMILES notation. In brackets after ≈: the same amount, converted by molar mass. Several values for one entry are separate records, joined by “and”; a condition that tells them apart may be missing. Equal values may be shown once. Where a name gives a salt, the structure may show the parent alone.

For the compound `CC(=O)Oc1ccccc1C(=O)NC=C(Cl)Cl` [Compound No. 6, O-acetyl-N-(2,2-dichlorovinyl) salicylamide], the Percentage of healthy seedlings at 0.25 g/box in data set [1] came to 83.2%. Moreover, the “Infected Index” value in data set [2] was 8.2. Also, the Phytotoxicity entry in [3] is on record as “Nil”; in data set [6] it was “Nil”; in [7] (dipped, 5,000 ppm (30 min.)), “Nil”; in [7] (dressed, 1 %), “Nil”. In addition, the pest or weed control at 1000 ppm in data set [4] came out at 100%. In addition, the “Effect Index” value in [5] stood at 75. The “Effective Index” value is 88 and 81 in the data set with Cladosporium cucumerinum (dipped, 5,000 ppm (30 min.)); 95 with Cladosporium cucumerinum (dressed, 1 %).

With `O=C(NC=C(Cl)Cl)c1ccccc1O` [Compound No. 1, N-(β,β-dichlorovinyl) salicylamide], in [1], the Percentage of healthy seedlings at 0.25 g/box was found to be 80.2%. The “Infected Index” value in [2] is on record as 9.4. Further, the Phytotoxicity result in data set [3] is listed as “Nil”; in data set [6] it was “Nil”; in data set [7] (dipped, 5,000 ppm (30 min.)), “Nil”; in [7] (dressed, 1 %), “Nil”. The pest or weed control at 1000 ppm in data set [4] is 100%. Moreover, the “Effect Index” value in data set [5] came to 84. The “Effective Index” value in the data set on Cladosporium cucumerinum (dipped, 5,000 ppm (30 min.)) worked out at 69; with Cladosporium cucumerinum (dressed, 1 %), 87. Further, the figures for the minimum inhibitory concentration with Aspergillus niger (setting [8]), in the data set with Cladosporium harbarum and with Staphylococcus aureus were 10 mc g/ml, 10 mc g/ml and 2.5 mc g/ml, respectively. The MIC came out at 10 µg/mL (≈ 43.1 µM) against Aspergillus niger (Aspergillus niger, (1) potato-dextrose agar dilution method); 2.5 µg/mL (≈ 10.8 µM) against Bacillus subtilis (setting [9]); 5 µg/mL (≈ 21.5 µM) in the data set with Bacillus subtilis (setting [8]); 5 µg/mL (≈ 21.5 µM) with Cladosporium harbarum (Cladosporium, (2) waxman's liquid medium dilution method); 80 µg/mL (≈ 345 µM) in the data set with Escherichia coli (setting [9]); 80 µg/mL (≈ 345 µM) against Escherichia coli (setting [8]). Further, the results for the MIC with Penicillium Citrinum (setting [9]), with Penicillium Citrinum (setting [8]) and against Staphylococcus aureus (setting [8]) were 10 µg/mL (≈ 43.1 µM), 20 µg/mL (≈ 86.2 µM) and 2.5 µg/mL (≈ 10.8 µM), respectively.

Regarding `O=C(NC=C(Cl)Cl)c1ccccc1O` [Compound No. 20, sodium salt of N-(β,β-dichlorovinyl) salicylamide], the “Infected Index” value in [2] is 13.7. The Phytotoxicity entry in [3] was “Nil”; in [6], “Nil”; in data set [7] (dressed, 1 %), “Nil”. The “Effect Index” value in [5] is 85. Further, in the data set on Cladosporium cucumerinum (dressed, 1 %), the “Effective Index” value turned out to be 90. The minimum inhibitory concentration in the data set with Aspergillus niger (setting [9]) is recorded as 10 mc g/ml; in the data set with Cladosporium harbarum, 2.5 mc g/ml; in the data set on Penicillium Citrinum (setting [9]), 10 mc g/ml; in the data set with Staphylococcus aureus, 6 mc g/ml. The MIC was 5 µg/mL against Bacillus subtilis (setting [10]), 60 µg/mL with Escherichia coli (setting [10]) and 5 µg/mL in the data set with Staphylococcus aureus (setting [10]).

Usually MIC stands for the least concentration at which growth counts as inhibited.

For the origin of these results see patent publication US4055640A, “Compositions and methods for controlling the growth of bacteria, fungi and algae using certain derivatives of N-(2,2-dichlorovinyl)salicylamides” (Nippon Kayaku Co., Ltd., priority 1975, dated 1977).
